Experimental data published in US11001591B2, “TRAF 6 inhibitors” (HELMHOLTZ ZENTRUM MUENCHEN—DEUTSCHES FORSCHUNGSZENTRUM FÜR …, priority 2016, dated 2021).
Entries after “also recorded” stand apart in the source; their conditions may differ.

Columns and labels:
[1] = target: interaction of Ubc13 with Uev1a (Homo sapiens, UniProt P61088+Q13404); assay: Ubc13-Uev1a interaction; format: binding
hERG = target: T1, hERG (Homo sapiens, UniProt Q12809); assay: hERG predictor assay; format: in vitro ADME
T1 construct: Bienta/Enamine Ltd. (contract lab)
T1 sequence (Q12809 whole entry): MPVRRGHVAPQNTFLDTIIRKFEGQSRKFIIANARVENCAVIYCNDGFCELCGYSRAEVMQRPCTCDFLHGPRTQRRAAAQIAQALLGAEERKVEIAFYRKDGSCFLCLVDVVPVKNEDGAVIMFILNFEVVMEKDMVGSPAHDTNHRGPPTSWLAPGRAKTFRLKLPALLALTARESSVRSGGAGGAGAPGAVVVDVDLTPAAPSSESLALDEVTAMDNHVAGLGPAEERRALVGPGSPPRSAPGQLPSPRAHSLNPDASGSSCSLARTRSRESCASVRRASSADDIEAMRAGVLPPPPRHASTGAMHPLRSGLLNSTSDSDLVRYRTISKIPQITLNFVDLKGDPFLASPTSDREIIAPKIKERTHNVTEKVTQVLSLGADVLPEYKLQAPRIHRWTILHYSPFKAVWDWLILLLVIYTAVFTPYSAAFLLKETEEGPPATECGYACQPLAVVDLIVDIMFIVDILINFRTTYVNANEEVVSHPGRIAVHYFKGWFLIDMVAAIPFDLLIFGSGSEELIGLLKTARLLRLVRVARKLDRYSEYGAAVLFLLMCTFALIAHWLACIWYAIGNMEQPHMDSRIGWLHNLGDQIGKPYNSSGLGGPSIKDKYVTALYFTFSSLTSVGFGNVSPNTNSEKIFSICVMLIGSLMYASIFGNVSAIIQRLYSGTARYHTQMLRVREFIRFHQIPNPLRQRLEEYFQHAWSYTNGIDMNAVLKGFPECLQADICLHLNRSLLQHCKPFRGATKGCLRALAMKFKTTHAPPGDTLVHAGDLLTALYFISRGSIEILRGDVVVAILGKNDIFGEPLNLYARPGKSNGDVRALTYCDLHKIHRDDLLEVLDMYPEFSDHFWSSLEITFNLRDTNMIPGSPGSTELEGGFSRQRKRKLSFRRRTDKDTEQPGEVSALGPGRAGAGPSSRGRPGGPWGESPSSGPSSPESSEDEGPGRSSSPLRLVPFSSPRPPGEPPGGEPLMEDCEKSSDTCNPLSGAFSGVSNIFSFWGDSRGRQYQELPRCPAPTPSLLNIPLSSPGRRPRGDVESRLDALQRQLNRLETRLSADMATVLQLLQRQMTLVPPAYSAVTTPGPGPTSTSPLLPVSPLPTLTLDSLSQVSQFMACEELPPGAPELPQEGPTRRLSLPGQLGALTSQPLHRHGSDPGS
Procedure: All ADME (plasma stability, plasma protein binding, microsomal stability, Log D, Caco-2 assay, CYP450 inhibition and hERG predictor assay) as well as pharmacokinetic studies (Tmax, Cmax, AUC0-240 min, Mean Residence Time, Elimination half life, Elimination rate constant, Volume of Distribution and Clearance) of C25-140 (compound 3) were conducted by Bienta Enamine Biology Services of Bienta/Enamine Ltd.

TRAF6-UBC13 interaction = target: T2, TRAF6-UBC13 interaction (Homo sapiens, UniProt Q9Y4K3); assay: ALPHAScreen TRAF6WTStrepII-Ubc13FH interaction assay; format: binding; details: inhibition of TRAF6-UBC13 interaction
T2 construct: RING-Zincfinger1 (RZ1) domain (residues 50-159) of TRAF6 wildtype; made in house; host or cells: E. coli BL21 codon plus RIPL
T2 sequence (Q9Y4K3 50-159): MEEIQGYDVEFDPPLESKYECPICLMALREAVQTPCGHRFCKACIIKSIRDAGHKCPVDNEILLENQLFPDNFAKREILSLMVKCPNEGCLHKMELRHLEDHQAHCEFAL
From the text: In order to identify small molecules that specifically target the RZ1 domain of TRAF6 and thereby prevent its binding to Ubc13, the ALPHAScreen technology (PerkinElmer) was chosen to detect TRAF6WTStrepII-Ubc13FH interaction in High-Throughput-Screenings as well as Structure Activity Relationship (SAR) analysis.
For performance of an automated ALPHAScreen assay, all following components were pre-diluted in ALPHAScreen buffer (1×PBS, 0.5% BSA, 0.01% Tween-20). First, the TRAF6 protein (end concentration 100 nM, 30 μL volume) was added to 384-well-opti-plates involving the MultiFlo dispensing system (BioTek) followed by transfer of the compounds via the Sciclone G3 transfer station (PerkinElmer). After addition of Ubc13FH (end concentration 75 nM, 10 μL volume) with the MultiFlo system and incubation for one hour at room temperature, both beads (Strep-Tactin Alpha Donor beads and Nickel-Chelate acceptor beads; end concentrations 4 μg each, 10 μL volume each) were mixed and added using the MultiFlo system in subdued light. Read-out of the plates occurred after another hour of incubation at room temperature. Statistical parameters including the coefficient of variation, Z′ factor and signal window were calculated to determine the quality of the HTS campaign. To evaluate the efficacy of the compounds, ALPHAScreen units of compound-treated samples were referred to DMSO control treated samples. Thereby, the TRAF6D57K mutant served as the control for minimum signal and was included on every plate of the screening. Compounds that inhibited TRAF6WTStrepII-Ubc13FH by more than 25% were considered as actives. After elimination of ALPHAScreen frequent hitter compounds and His-tag frequent hitters (Schorpp, K., I. Rothenaigner, E. Salmina, et al., Identification of Small-Molecule Frequent Hitters from AlphaScreen High-Throughput Screens. J Biomol Screen, 2014. 19(5): p. 715-26), 178 compounds were defined as primary hits and were subsequently tested in five-point serial dilution assays (2.5-40 μM) in TRAF6WTStrepII-Ubc13FH ALPHAScreen experiments. Only compounds with dose-dependent effects on TRAF6WTStrepII-Ubc13FH (n=27) were taken for further research. For analog testing, all compounds were analyzed in ten-point titration (0.2-100 μM) in TRAF6WTStrepII-Ubc13FH ALPHAScreen experiments. In parallel, the compounds were tested in the ALPHAScreen TruHits Kit (PerkinElmer) to rule out unspecific interference with the ALPHAScreen technology.

p-IκBα (Ser32/36) = assay: ALPHASurefire p-IκBα in IL-1β stimulated MEF cells; format: cell-based, mouse; details: compared with C25, C25-189, C25-167; FIG. 1C
Procedure: In order to detect protein levels of p-IκBα (Ser32/36) as well as total IκBα, 1×10^4 MEF cells were seeded in 96-well plates, treated with compound for 6 hours and stimulated with 1 ng/ml IL-1β for 7 minutes. The p-IκBα and total IκBα protein levels were analyzed using the ALPHASurefire kits (PerkinElmer) following the manufacturer's instruction. The general 2-plate protocol was conducted.

TRAF6-Ubc13 binding = target: T3, TRAF6-Ubc13 binding (Homo sapiens, UniProt Q9Y4K3); assay: Co-immunoprecipitation of HA-TRAF6 and endogenous Ubc13 in HEK 293T cells; format: cell-based; details: listed as C25-140
T3 construct: RING-Zincfinger1 (RZ1) domain (residues 50-159) of TRAF6 wildtype; expressed in transfected cells; host or cells: HEK 293T
T3 sequence (Q9Y4K3 50-159): T2 sequence (Q9Y4K3 50-159)
Procedure: To study the interaction of TRAF6 and Ubc13 in cells, 1×10^6 293T cells were seeded and after 18 hours cells were transfected with lpg pEF-HA empty or pEF-HA-TRAF6 RZ1 plasmid using the X-tremeGENE HP DNA transfection reagent (Roche). 6 hours upon transfection, cells were treated with compound or DMSO. After 42 hours further incubation, cells were harvested in Co-IP lysis buffer and HA-TRAF6 was immunoprecipitated with anti-HA affinity matrix (Roche). Binding of Ubc13 to TRAF6 was examined in Western Blot analysis.

Chain of interaction of Ubc13 with Uev1a (P61088 whole entry): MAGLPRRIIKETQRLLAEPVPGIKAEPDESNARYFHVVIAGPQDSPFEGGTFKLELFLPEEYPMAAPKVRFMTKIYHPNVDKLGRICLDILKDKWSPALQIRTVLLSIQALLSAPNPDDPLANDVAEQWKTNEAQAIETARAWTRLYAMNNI
Chain of interaction of Ubc13 with Uev1a (Q13404 whole entry): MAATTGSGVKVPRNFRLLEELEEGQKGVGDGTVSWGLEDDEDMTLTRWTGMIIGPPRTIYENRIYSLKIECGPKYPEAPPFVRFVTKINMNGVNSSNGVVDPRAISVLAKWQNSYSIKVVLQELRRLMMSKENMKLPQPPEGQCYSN

## Cc1nn(-c2ccc3nnc(C)n3n2)c(C)c1CCC(=O)N1CCC(Cc2ccccc2)CC1 [Compound 3, 1-(4-benzylpiperidin-1-yl)-3-(3,5-dimethyl-1-(3-methyl-[1,2,4]triazolo[4,3-b]pyridazin-6-yl)-1H-pyrazol-4-yl)propan-1-one]
[1]
  binding of Ubc13 to Uev1a: did not affect
hERG
  hERG inhibition: does not very much inhibit hERG
TRAF6-UBC13 interaction
  IC50: ≤ 3 µM
p-IκBα (Ser32/36)
  p-IκBα protein levels, ALPHASurefire: more active
TRAF6-Ubc13 binding
  interaction of endogenous Ubc13 with ectopically expressed HA-TRAF6: reduced interaction; also recorded: most active analogs
